Reference: patent publication US5972379A, “Liposome composition and method for administering a quinolone” (Sequus Pharmaceuticals, Inc., priority 1998, dated 1999)
In brackets after ≈: the same amount, converted by molar mass. Where two headings read alike, the source gives them in different places.

What was measured:
[1] = Remote drug loading into PEG-coated liposomes; type: physicochemical; settings: for % Drug Loading / Drug Conc. at Lipid Conc. of 36 mg/ml / Internal Liposome Drug Conc.: Drug:Lipid Ratio (mg/ml/mM) 2.5:50 (lysine-cipro), 5:50 (glycine-cipro)
Method: The chloroform was removed using a flash evaporator under reduced pressure until dryness. To the thin lipid film on the surface of the flask was added 15 ml of a solution of 250 mM ammonium sulfate, pH 5.5 and the lipids were dispersed in the solution by vigorous shaking for approximately 30 minutes at 60° C. The multilamellar vesicles obtained were extruded 6 times through a 0.4 μm pore-size Nucleopore polycarbonate filter, 6 times through a 0.1 μm polycarbonate filter and 3 times through a 0.05 μm polycarbonate filter using a stainless steel extrusion cell under a pressure of 200-400 psig. The extrusion process was carried out at 60° C. […] The liposomes were then dialyzed overnight against 4 liters 10% sucrose to remove external ammonium sulfate at 4° C.
The mixtures were incubated at 60° C. for 30 minutes. After incubation, the mixtures were immediately cooled in an ice bath. Aliquot samples were taken and the percent of drug loading was determined by using a Sephadex G-50 column (1.0×19 cm).

[2] = cited from earlier work
S. aureus = test: Minimum inhibitory concentration, broth microdilution (NCCLS M7-A); type: cell-based; settings: Staphylococcus aureus, inoculum 5×10^5 CFU/ml
Method: (§1) As described above, glycinyl-ciprofloxacin was prepared as set forth in Example 2A-2B and tested for antimicrobial activity in vitro, as described in Example 2C. The minimum inhibitory concentration of the drugs against the bacterial strains S. pyrogenes, E. faecalis, S. aureus, E. coli and P. aeruginosa were determined.
(§2) Minimum inhibitory concentrations were determined by a broth microdilution technique following the National Committee for Clinical Laboratory Standards guidelines (NCCLS document M7-A, National Committee for Laboratory Standards, Villanova, Pa., 1994 Approved Standard for "Methods for dilution antimicrobial susceptibility tests for bacteria that grow aerobically") with a starting inoculum of 5×10^5 CFU/ml.

P. aeruginosa = test: as above; type: cell-based; settings: Pseudomonas aeruginosa, read-out: Minimum Inhibitory Concentration
Method: (§3) The minimum inhibitory concentration of the drugs against the bacterial strains S. pyrogenes, E. faecalis, S. aureus, E. coli and P. aeruginosa were determined.

E. faecalis = test: as above; type: cell-based; settings: Enterococcus faecalis, read-out: Minimum Inhibitory Concentration
Method: as §3

S. pyrogenes = test: as above; type: cell-based; settings: read-out: Minimum Inhibitory Concentration
Method: as §3

E. coli = test: as above; type: cell-based; settings: Escherichia coli, inoculum 5×10^5 CFU/ml
Method: as §1, §2

[3] = tested on: S. pyrogenes, E. faecalis, S. aureus, E. coli and P. aeruginosa; test: Antimicrobial activity of conjugate versus ciprofloxacin (MIC, summary in words); type: cell-based; settings: compared with ciprofloxacin, MICs of Table 1
Method: as §3

[4] = amino group (NH3) of amino acid, Lehninger
[5] = amino acid used to modify ciprofloxacin

Compound: NCCCC[C@H](N)C(=O)N1CCN(c2cc3c(cc2F)c(=O)c(C(=O)O)cn3C2CC2)CC1 [lysinyl-ciprofloxacin]
- % Drug Loading [1]: 73%
- Drug Conc. at Lipid Conc. of 36 mg/ml [1]: 1.825
- Internal Liposome Drug Conc. [1]: 13.1 mg/mL

Compound: N=C(N)NCCC[C@H](N)C(=O)O [arginine]
- pKa [2, 4]: 9.04

Compound: NCCCC[C@H](N)C(=O)O [lysine]
- pKa [2, 4]: 8.95

Compound: O=C(O)c1cn(C2CC2)c2cc(N3CCNCC3)c(F)cc2c1=O [ciprofloxacin, 1-cyclopropyl-6-fluoro-1,4-dihydro-4-oxo-7-(1-piperazinyl)-3-quinoline carboxylic acid]
- MIC (S. aureus): 1 µg/mL (≈ 3.02 µM)
- MIC (P. aeruginosa): < 0.5 µg/mL
- MIC (E. faecalis): 1 µg/mL (≈ 3.02 µM)
- MIC (S. pyrogenes): < 0.5 µg/mL
- percent of drug loading ([1]; lipid/drug ratio 2): 49%
- percent of drug loading ([1]; lipid/drug ratio 4): 75%
- percent of drug loading ([1]; lipid/drug ratio 8): 90%
- ciprofloxacin loading ([1]; lipid/drug ratio 8, as stated in leakage test): 75%
- percent of drug loading ([1]; lipid/drug ratio 16): 91%

Compound: NCC(=O)N1CCN(c2cc3c(cc2F)c(=O)c(C(=O)O)cn3C2CC2)CC1 [glycinyl-ciprofloxacin]
- MIC (E. coli): 8 µg/mL (≈ 20.6 µM)
- MIC (S. aureus): 32 µg/mL (≈ 82.4 µM)
- MIC (P. aeruginosa; P. aeruginosa, inoculum 5×10^5 CFU/ml): > 512 µg/mL
- MIC (E. faecalis; E. faecalis, inoculum 5×10^5 CFU/ml): 32 µg/mL (≈ 82.4 µM)
- MIC (S. pyrogenes; S. pyrogenes, inoculum 5×10^5 CFU/ml): 4 µg/mL (≈ 10.3 µM)
- potency relative to ciprofloxacin [3]: some loss of potency
- % Drug Loading [1]: 75%
- Drug Conc. at Lipid Conc. of 36 mg/ml [1]: 5
- Internal Liposome Drug Conc. [1]: 37.5 mg/mL

Compound: ε-aminocapric acid
- pKa [2, 5]: 10.5

Compound: NCC(=O)O [glycine]
- pKa [2, 4]: 9.6

Compound: α-aminocapric acid
- pKa [2, 5]: 9.6

Compound: C[C@H](N)C(=O)O [alanine]
- pKa [2, 4]: 9.7
